Active and inactive are the calls of the source. The rule behind the calls is not given here.
Tests used:
Hep 3B2 = assay: Antiproliferative activity against human Hep3B cells assessed as inhibition of cell proliferation incubated for 24 hrs by CCK-8 assay; assay type: functional, cell-based
HepG2 = assay: Antiproliferative activity against human HepG2 cells assessed as inhibition of cell proliferation incubated for 24 hrs by CCK-8 assay; assay type: functional, cell-based; conditions: HepG2, 24 h
Huh-7 [1] = assay: Antiproliferative activity against human Huh-7 cells assessed as inhibition of cell proliferation incubated for 24 hrs by CCK-8 assay; assay type: functional, cell-based; conditions: Huh-7, 24 h
Huh-7 [2] = assay: Induction of apoptosis in human Huh-7 cells assessed as necrotic cells at 6.25 uM incubated for 24 hrs by Annexin V-FITC/PI staining based flow cytometric analysis (reference value: 1.67 %); assay type: functional
Huh-7 [3] = assay: Induction of apoptosis in human Huh-7 cells assessed as viable cells at 6.25 uM incubated for 24 hrs by Annexin V-FITC/PI staining based flow cytometric analysis (reference value: 92.31 %); assay type: functional; conditions: read-out: Activity
Huh-7 [4] = assay: Induction of apoptosis in human Huh-7 cells assessed as late apoptotic cells at 12.5 uM incubated for 24 hrs by Annexin V-FITC/PI staining based flow cytometric analysis (reference value: 3.19 %); assay type: functional
Huh-7 [5] = assay: Induction of apoptosis in human Huh-7 cells assessed as necrotic cells at 3.125 uM incubated for 24 hrs by Annexin V-FITC/PI staining based flow cytometric analysis (reference value: 1.67 %); assay type: functional
Huh-7 [6] = assay: Induction of apoptosis in human Huh-7 cells assessed as late apoptotic cells at 3.125 uM incubated for 24 hrs by Annexin V-FITC/PI staining based flow cytometric analysis (reference value: 3.19 %); assay type: functional
Huh-7 [7] = assay: Induction of apoptosis in human Huh-7 cells assessed as viable cells at 12.5 uM incubated for 24 hrs by Annexin V-FITC/PI staining based flow cytometric analysis (reference value: 92.31 %); assay type: functional; conditions: read-out: Activity
Huh-7 [8] = assay: Antimigratory activity against human Huh-7 cells assessed as inhibition of cell migration at 6.25 to 12.5 uM incubated for 48 hrs by scratch wound healing assay; assay type: functional, cell-based; conditions: dose 6.25-12.5 µM
Huh-7 [9] = assay: Induction of apoptosis in human Huh-7 cells assessed as early apoptotic cells at 3.125 uM incubated for 24 hrs by Annexin V-FITC/PI staining based flow cytometric analysis (reference value: 2.83 %); assay type: functional
Huh-7 [10] = assay: Induction of apoptosis in human Huh-7 cells assessed as early apoptotic cells at 12.5 uM incubated for 24 hrs by Annexin V-FITC/PI staining based flow cytometric analysis (reference value: 2.83 %); assay type: functional
Huh-7 [11] = assay: Induction of apoptosis in human Huh-7 cells assessed as late apoptotic cells at 6.25 uM incubated for 24 hrs by Annexin V-FITC/PI staining based flow cytometric analysis (reference value: 3.19 %); assay type: functional
Huh-7 [12] = assay: Induction of apoptosis in human Huh-7 cells assessed as early apoptotic cells at 6.25 uM incubated for 24 hrs by Annexin V-FITC/PI staining based flow cytometric analysis (reference value: 2.83 %); assay type: functional
Huh-7 [13] = assay: Induction of apoptosis in human Huh-7 cells assessed as viable cells at 3.125 uM incubated for 24 hrs by Annexin V-FITC/PI staining based flow cytometric analysis (reference value: 92.31 %); assay type: functional; conditions: read-out: Activity
[14] = target: Signal transducer and activator of transcription 3 (Homo sapiens) (UniProt P40763); assay: Inhibition of STAT3 phosphorylation in human Huh-7 cells at 6.25 to 12.5 uM by Western blot analysis; assay type: cell-based; conditions: dose 6.25-12.5 µM
Chain of Signal transducer and activator of transcription 3 (Homo sapiens) (P40763 whole entry): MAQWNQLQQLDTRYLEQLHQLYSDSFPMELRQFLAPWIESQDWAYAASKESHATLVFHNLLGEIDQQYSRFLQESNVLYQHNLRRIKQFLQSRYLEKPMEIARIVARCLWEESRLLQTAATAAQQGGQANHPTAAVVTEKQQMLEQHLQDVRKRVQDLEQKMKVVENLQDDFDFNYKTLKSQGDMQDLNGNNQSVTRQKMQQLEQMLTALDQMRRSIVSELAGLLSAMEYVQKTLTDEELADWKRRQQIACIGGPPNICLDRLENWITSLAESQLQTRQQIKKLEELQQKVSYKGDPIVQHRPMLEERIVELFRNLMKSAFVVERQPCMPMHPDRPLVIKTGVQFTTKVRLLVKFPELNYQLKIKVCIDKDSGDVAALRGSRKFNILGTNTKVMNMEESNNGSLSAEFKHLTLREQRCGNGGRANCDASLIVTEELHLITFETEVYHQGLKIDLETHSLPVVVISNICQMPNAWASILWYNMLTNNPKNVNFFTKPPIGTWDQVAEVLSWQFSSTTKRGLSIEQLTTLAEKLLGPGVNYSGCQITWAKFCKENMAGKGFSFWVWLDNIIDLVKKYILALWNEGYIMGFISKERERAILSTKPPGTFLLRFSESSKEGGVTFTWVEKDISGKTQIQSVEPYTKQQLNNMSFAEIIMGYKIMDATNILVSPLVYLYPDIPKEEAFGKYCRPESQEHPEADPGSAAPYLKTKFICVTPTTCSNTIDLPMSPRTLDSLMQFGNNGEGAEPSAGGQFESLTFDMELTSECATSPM

Huh-7 [15] = assay: Induction of apoptosis in human Huh-7 cells assessed as necrotic cells at 12.5 uM incubated for 24 hrs by Annexin V-FITC/PI staining based flow cytometric analysis (reference value: 1.67 %); assay type: functional

SMILES | IC50 (HepG2) | IC50 (Huh-7 [1]) | IC50 (Hep 3B2) | further results
C=C(C)CC[C@@H]1C[C@]23C[C@H](CCC(C)(C)O)C(C)(C)[C@](CC=C(C)C)(C(=O)C(C(=O)c4ccc(O)c(O)c4)=C2OC1(C)C)C3=O | 9.5 µM | 17.3 µM | 15.8 µM | –
CNC(=O)c1cc(Oc2ccc(NC(=O)Nc3ccc(Cl)c(C(F)(F)F)c3)cc2)ccn1 [SORAFENIB] | 16.6 µM | 9.7 µM | 12.4 µM | –
CC(C)=CC[C@@H]1C[C@]23C[C@H](CCC(C)(C)O)C(C)(C)[C@](CC=C(C)C)(C(=O)C(C(=O)c4ccc(O)c(O)c4)=C2OC1(C)C)C3=O | 11.7 µM | 20.6 µM | 23.9 µM | –
C=C(C)[C@H]1C[C@]23C[C@H](CC=C(C)C)C(C)(C)[C@](CC=C(C)C)(C(=O)C(C(=O)c4cccc(O)c4)=C2O[C@@H]1C=C(C)C)C3=O | 22 µM | 25.1 µM | 17.9 µM | –
CC(C)=CC[C@@H]1C[C@]23C[C@@H](CC=C(C)C)C(C)(C)[C@](CC=C(C)C)(C(=O)C(C(=O)c4ccc(O)c(O)c4)=C2OC1(C)C)C3=O | 4.3 µM | 9.3 µM | 9.3 µM | Activity (Huh-7 [2]): 1.69%; viability at 6.25 µM (Huh-7 [3]): 86.5%; Activity (Huh-7 [4]): 3.3%; Activity (Huh-7 [5]): 1.53%; Activity (Huh-7 [6]): 3.19%; viability at 12.5 µM (Huh-7 [7]): 83.8%; Activity (Huh-7 [8]): Active; Activity (Huh-7 [9]): 10.88%; Activity (Huh-7 [10]): 10.38%; Activity (Huh-7 [11]): 3.38%; Activity (Huh-7 [12]): 8.39%; viability at 3.125 µM (Huh-7 [13]): 84.4%; inhibition [14]: Active; Activity (Huh-7 [15]): 2.55%
C=C(C)[C@H]1C[C@]23C[C@H](CC=C(C)C)C(C)(C)[C@](CC=C(C)C)(C(=O)C(C(=O)c4ccc(O)c(O)c4)=C2O[C@@H]1C=C(C)C)C3=O | 11 µM | 18.1 µM | 18.2 µM | –
C=C(C)CC[C@@H](C[C@]12C[C@H](CC=C(C)C)C(C)(C)[C@](CC=C(C)C)(C(=O)C(C(=O)c3cccc(O)c3)=C1O)C2=O)C(=C)C | 23.2 µM | 27.2 µM | 20.8 µM | –

More lines, main results first:

IC50 (HepG2) | IC50 (Huh-7 [1]) | SMILES | IC50 (Hep 3B2) | further results
3.9 µM | 12.6 µM | CC(C)=CC[C@@H]1C[C@]23C[C@H](CCC(C)(C)O)C(C)(C)OC2=C(C(=O)c2ccc(O)c(O)c2)C(=O)[C@@](CC=C(C)C)(C3=O)C1(C)C | 9 µM | –
11.3 µM | 9.3 µM | C=C(C)CC[C@@H]1C[C@]23C[C@@H](CC=C(C)C)C(C)(C)[C@](CC=C(C)C)(C(=O)C(C(=O)c4ccc(O)c(O)c4)=C2OC1(C)C)C3=O | 17.1 µM | Activity (Huh-7 [2]): 3.01%; viability at 6.25 µM (Huh-7 [3]): 80.3%; Activity (Huh-7 [4]): 6.37%; Activity (Huh-7 [5]): 2.09%; Activity (Huh-7 [6]): 5.35%; viability at 12.5 µM (Huh-7 [7]): 77.7%; Activity (Huh-7 [8]): Active; Activity (Huh-7 [9]): 11.74%; Activity (Huh-7 [10]): 11.75%; Activity (Huh-7 [11]): 5.65%; Activity (Huh-7 [12]): 11.09%; viability at 3.125 µM (Huh-7 [13]): 80.8%; inhibition [14]: Active; Activity (Huh-7 [15]): 4.17%
12.4 µM | 28.2 µM | C=C(C)CC[C@@H]1C[C@]23C[C@H](CC=C(C)C)C(C)(C)[C@](CC=C(C)C)(C(=O)C(C(=O)c4cccc(O)c4)=C2OC1(C)C)C3=O | 44.8 µM | –
22.5 µM | 22.9 µM | C=C(C)CC[C@H]1C[C@]23C[C@@H](CC=C(C)C)C(C)(C)[C@](CC=C(C)C)(C(=O)C(C(=O)c4ccc(O)c(O)c4)=C2OC1(C)C)C3=O | 15.5 µM | –
